Data: ChEMBL document CHEMBL3588848, “Dihydropyrrolopyrazol-6-one MCHR1 antagonists for the treatment of obesity: Insights on in vivo efficacy from a novel FLIPR assay setup” (Bioorg Med Chem Lett, 2015)

Columns and labels:
[1] = Displacement of [Phe13, [125I]Tyr19]-MCH from human MCHR1 E4Q/A5T double mutant expressed in HEK293 cell membranes after 90 mins by scintillation counting analysis
hERG (KCNH2) [2] = target: T1, hERG (KCNH2) (Homo sapiens, UniProt Q12809); assay: Inhibition of human ERG expressed in CHO cells at 0.3 uM by automated whole-cell patch clamp electrophysiology system relative to control; type: cell-based; conditions: CHO cells expressing human ERG
[3] = Lipophilicity, log P of the compound by HPLC analysis; type: physicochemical
hERG (KCNH2) [4] = target: T1, hERG (KCNH2); assay: Inhibition of human ERG expressed in CHO cells at 1 uM by automated whole-cell patch clamp electrophysiology system relative to control; type: cell-based; conditions: CHO cells expressing human ERG
Rattus norvegicus [5] = assay: Antiobesity activity in Sprague-Dawley rat assessed as body weight loss at 15 mg/kg, po qd administered 1 hr prior to onset of dark cycle measured for 7 days relative to vehicle-treated control; type: functional
[6] = Fraction unbound in Sprague-Dawley rat plasma at 15 mg/kg, po qd; type: ADME, organism-based
[7] = Plasma concentration in Sprague-Dawley rat at 15 mg/kg, po qd measured at 20 hrs post dose; type: ADME, organism-based
[8] = Drug uptake in Sprague-Dawley rat brain at 15 mg/kg, po qd measured at 20 hrs post dose; type: ADME, organism-based; conditions: read-out: Drug uptake
Rattus norvegicus [9] = assay: Antiobesity activity in Sprague-Dawley rat assessed as 2-(4-chlorophenyl)-5-(4-(2-hydroxy-2-methylpropoxy)-3-methoxyphenyl)-4,5-dihydropyrrolo[3,4-c]pyrazol-6(2H)-one-mediated body weight loss at 30 mg/kg, po qd administered 1 hr prior to onset of dark cycle measured for 4 days relative to vehicle-treated control; type: functional
Plasma [10] = assay: Fraction unbound in Sprague-Dawley rat plasma assessed as 2-(4-chlorophenyl)-5-(4-(2-hydroxy-2-methylpropoxy)-3-methoxyphenyl)-4,5-dihydropyrrolo[3,4-c]pyrazol-6(2H)-one at 30 mg/kg, po qd; type: ADME, organism-based; conditions: in vivo
Plasma [11] = assay: Plasma concentration in Sprague-Dawley rat assessed as 2-(4-chlorophenyl)-5-(4-(2-hydroxy-2-methylpropoxy)-3-methoxyphenyl)-4,5-dihydropyrrolo[3,4-c]pyrazol-6(2H)-one at 30 mg/kg, po qd measured at 20 hrs post dose; type: ADME, organism-based; conditions: in vivo
Brain [12] = assay: Drug uptake in Sprague-Dawley rat brain assessed as 2-(4-chlorophenyl)-5-(4-(2-hydroxy-2-methylpropoxy)-3-methoxyphenyl)-4,5-dihydropyrrolo[3,4-c]pyrazol-6(2H)-one at 30 mg/kg, po qd measured at 20 hrs post dose; type: ADME, organism-based; conditions: in vivo, read-out: Drug uptake
[13] = target: T2, Melanin-concentrating hormone receptor 1 (Rattus norvegicus, UniProt P97639); assay: Antagonist activity at rat MCHR1 assessed as 2-(4-chlorophenyl)-5-(4-(2-hydroxy-2-methylpropoxy)-3-methoxyphenyl)-4,5-dihydropyrrolo[3,4-c]pyrazol-6(2H)-one
[14] = target: T2, Melanin-concentrating hormone receptor 1; assay: Antagonist activity at rat MCHR1
Rattus norvegicus [15] = assay: Antiobesity activity in Sprague-Dawley rat assessed as body weight loss at 1 mg/kg, po qd administered 1 hr prior to onset of dark cycle measured for 7 days relative to vehicle-treated control; type: functional
Rattus norvegicus [16] = assay: Antiobesity activity in Sprague-Dawley rat assessed as body weight loss at 3 mg/kg, po qd administered 1 hr prior to onset of dark cycle measured for 7 days relative to vehicle-treated control; type: functional
Rattus norvegicus [17] = assay: Antiobesity activity in Sprague-Dawley rat assessed as body weight loss at 10 mg/kg, po qd administered 1 hr prior to onset of dark cycle measured for 7 days relative to vehicle-treated control; type: functional
[18] = Fraction unbound in Sprague-Dawley rat plasma at 1 mg/kg, po qd; type: ADME, organism-based
[19] = Fraction unbound in Sprague-Dawley rat plasma at 3 mg/kg, po qd; type: ADME, organism-based
[20] = Fraction unbound in Sprague-Dawley rat plasma at 10 mg/kg, po qd; type: ADME, organism-based
[21] = Plasma concentration in Sprague-Dawley rat at 1 mg/kg, po qd measured at 20 hrs post dose; type: ADME, organism-based
[22] = Plasma concentration in Sprague-Dawley rat at 3 mg/kg, po qd measured at 20 hrs post dose; type: ADME, organism-based
[23] = Plasma concentration in Sprague-Dawley rat at 10 mg/kg, po qd measured at 20 hrs post dose; type: ADME, organism-based
Brain [24] = assay: Drug uptake in Sprague-Dawley rat brain at 1 mg/kg, po qd measured at 20 hrs post dose; type: ADME, organism-based; conditions: in vivo, BLD = below limit of detection
[25] = Drug uptake in Sprague-Dawley rat brain at 3 mg/kg, po qd measured at 20 hrs post dose; type: ADME, organism-based; conditions: read-out: Drug uptake
[26] = Drug uptake in Sprague-Dawley rat brain at 10 mg/kg, po qd measured at 20 hrs post dose; type: ADME, organism-based; conditions: read-out: Drug uptake
[27] = Ratio of unbound concentration in Sprague-Dawley rat brain at 3 mg/kg, po qd to Ki for rat MCHR1; type: ADME, organism-based; conditions: in vivo
[28] = Ratio of unbound concentration in Sprague-Dawley rat brain at 10 mg/kg, po qd to Ki for rat MCHR1; type: ADME, organism-based; conditions: in vivo
[29] = target: Melanin-concentrating hormone receptor 1 (Homo sapiens, UniProt Q99705); assay: Antagonist activity at human MCHR1 expressed in HEK293 cells assessed as inhibition of MCH-stimulated Ca2+ influx preincubated for 120 mins followed by MCH challenge by FLIPR assay; type: functional, cell-based
[30] = target: T2, Melanin-concentrating hormone receptor 1; assay: Antagonist activity at rat MCHR1 assessed as 6-(4-chlorophenyl)-3-(4-(2-hydroxy-2-methylpropoxy)-3-methoxyphenyl)thieno[3,2-d]pyrimidin-4(3H)-one
Rattus norvegicus [31] = assay: Antiobesity activity in Sprague-Dawley rat assessed as 6-(4-chlorophenyl)-3-(4-(2-hydroxy-2-methylpropoxy)-3-methoxyphenyl)thieno[3,2-d]pyrimidin-4(3H)-one-mediated body weight loss at 10 mg/kg, po qd administered 1 hr prior to onset of dark cycle measured for 7 days relative to vehicle-treated control; type: functional
Plasma [32] = assay: Fraction unbound in Sprague-Dawley rat plasma assessed as 6-(4-chlorophenyl)-3-(4-(2-hydroxy-2-methylpropoxy)-3-methoxyphenyl)thieno[3,2-d]pyrimidin-4(3H)-one at 10 mg/kg, po qd; type: ADME, organism-based; conditions: in vivo
Plasma [33] = assay: Plasma concentration in Sprague-Dawley rat assessed as 6-(4-chlorophenyl)-3-(4-(2-hydroxy-2-methylpropoxy)-3-methoxyphenyl)thieno[3,2-d]pyrimidin-4(3H)-one at 10 mg/kg, po qd measured at 20 hrs post dose; type: ADME, organism-based; conditions: in vivo
Brain [34] = assay: Drug uptake in Sprague-Dawley rat brain assessed as 6-(4-chlorophenyl)-3-(4-(2-hydroxy-2-methylpropoxy)-3-methoxyphenyl)thieno[3,2-d]pyrimidin-4(3H)-one at 10 mg/kg, po qd measured at 20 hrs post dose; type: ADME, organism-based; conditions: in vivo
[35] = Ratio of unbound concentration in Sprague-Dawley rat brain assessed as 6-(4-chlorophenyl)-3-(4-(2-hydroxy-2-methylpropoxy)-3-methoxyphenyl)thieno[3,2-d]pyrimidin-4(3H)-one at 10 mg/kg, po qd to Ki for rat MCHR1 assessed as 6-(4-chlorophenyl)-3-(4-(2-hydroxy-2-methylpropoxy)-3-methoxyphenyl)thieno[3,2-d]pyrimidin-4(3H)-one; type: ADME, organism-based; conditions: in vivo
[36] = Ratio of drug level in brain to plasma in Sprague-Dawley rat assessed as 6-(4-chlorophenyl)-3-(4-(2-hydroxy-2-methylpropoxy)-3-methoxyphenyl)thieno[3,2-d]pyrimidin-4(3H)-one at 10 mg/kg, po qd measured at 20 hrs post dose
[37] = target: Voltage-gated inwardly rectifying potassium channel KCNH2 (Homo sapiens, UniProt Q12809); assay: Inhibition of human ERG expressed in CHO cells by automated whole-cell patch clamp electrophysiology system; type: cell-based
Sequence of Voltage-gated inwardly rectifying potassium channel KCNH2 (Q12809 whole entry): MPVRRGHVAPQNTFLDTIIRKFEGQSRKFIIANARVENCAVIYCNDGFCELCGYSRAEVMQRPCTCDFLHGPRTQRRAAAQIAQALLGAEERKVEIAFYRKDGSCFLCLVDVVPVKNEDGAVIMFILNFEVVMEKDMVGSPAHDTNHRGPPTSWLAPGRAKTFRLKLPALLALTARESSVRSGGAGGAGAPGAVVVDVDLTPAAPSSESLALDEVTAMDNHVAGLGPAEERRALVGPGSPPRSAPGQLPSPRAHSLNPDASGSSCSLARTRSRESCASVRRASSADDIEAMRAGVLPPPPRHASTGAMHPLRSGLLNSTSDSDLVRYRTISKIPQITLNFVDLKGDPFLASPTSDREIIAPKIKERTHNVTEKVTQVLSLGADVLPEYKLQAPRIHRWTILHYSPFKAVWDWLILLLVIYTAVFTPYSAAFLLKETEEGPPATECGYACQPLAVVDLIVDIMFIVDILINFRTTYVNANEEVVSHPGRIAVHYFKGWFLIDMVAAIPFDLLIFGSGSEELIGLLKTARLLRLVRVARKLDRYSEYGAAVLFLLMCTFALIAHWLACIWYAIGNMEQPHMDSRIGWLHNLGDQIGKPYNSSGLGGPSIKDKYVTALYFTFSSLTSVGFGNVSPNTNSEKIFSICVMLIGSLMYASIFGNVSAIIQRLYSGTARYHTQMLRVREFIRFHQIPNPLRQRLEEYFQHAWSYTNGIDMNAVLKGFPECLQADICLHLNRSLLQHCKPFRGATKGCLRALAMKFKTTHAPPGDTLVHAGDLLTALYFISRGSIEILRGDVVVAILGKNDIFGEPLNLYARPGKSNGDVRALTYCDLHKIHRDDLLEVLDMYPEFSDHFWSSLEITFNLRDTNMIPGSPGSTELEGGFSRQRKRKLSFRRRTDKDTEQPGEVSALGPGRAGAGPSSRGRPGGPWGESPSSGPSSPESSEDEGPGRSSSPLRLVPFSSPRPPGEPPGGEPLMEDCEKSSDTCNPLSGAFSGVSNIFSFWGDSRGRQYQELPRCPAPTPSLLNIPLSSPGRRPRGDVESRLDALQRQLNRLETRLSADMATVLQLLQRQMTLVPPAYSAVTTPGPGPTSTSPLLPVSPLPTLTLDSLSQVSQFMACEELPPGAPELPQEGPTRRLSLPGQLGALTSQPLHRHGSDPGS

T2 sequence (P97639 whole entry): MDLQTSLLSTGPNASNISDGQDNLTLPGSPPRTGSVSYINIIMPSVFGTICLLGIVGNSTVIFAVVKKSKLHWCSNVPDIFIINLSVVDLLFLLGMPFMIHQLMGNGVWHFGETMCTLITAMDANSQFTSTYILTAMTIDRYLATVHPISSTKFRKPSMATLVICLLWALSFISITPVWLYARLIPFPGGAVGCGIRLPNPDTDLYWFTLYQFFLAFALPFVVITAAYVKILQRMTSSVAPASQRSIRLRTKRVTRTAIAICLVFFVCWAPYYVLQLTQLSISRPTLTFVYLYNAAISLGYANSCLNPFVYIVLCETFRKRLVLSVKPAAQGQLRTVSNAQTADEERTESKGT
Sequence of Melanin-concentrating hormone receptor 1 (Homo sapiens, UniProt Q99705) (Q99705 whole entry): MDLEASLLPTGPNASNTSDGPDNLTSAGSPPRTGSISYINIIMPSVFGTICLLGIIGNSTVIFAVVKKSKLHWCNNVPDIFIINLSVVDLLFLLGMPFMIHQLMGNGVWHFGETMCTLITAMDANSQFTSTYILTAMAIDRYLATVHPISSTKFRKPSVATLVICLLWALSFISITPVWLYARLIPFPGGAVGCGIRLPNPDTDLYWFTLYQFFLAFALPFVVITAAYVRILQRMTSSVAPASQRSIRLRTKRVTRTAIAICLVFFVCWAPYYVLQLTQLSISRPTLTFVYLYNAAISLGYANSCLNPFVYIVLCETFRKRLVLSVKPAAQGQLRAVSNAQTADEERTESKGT
T1 sequence (Q12809 whole entry): as the sequence (Q12809 whole entry) above

Structure (SMILES): COc1cc(N2Cc3nn(-c4ccc(Cl)cc4)cc3C2=O)ccc1OCC(C)O (configuration not stated)
- Ki [1]: 334 nM

Structure (SMILES): COc1cc(N2Cc3nn(-c4ccc(Cl)cc4)cc3C2=O)ccc1OCC(C)(C)O
- Ki [1]: 107 nM

Structure (SMILES): CNC1CCN(c2ccc(N3Cc4cn(-c5ccc(Cl)cc5)nc4C3=O)cc2)C1 (configuration not stated)
- Ki [1]: 0.8 nM
- inhibition at 0.3 µM (hERG (KCNH2) [2]): 51%

Structure (SMILES): COc1cc(N2Cc3nn(-c4ccc(Cl)cc4)nc3C2=O)ccc1OCCN1CCCC1
- Ki [1]: 2.3 nM
- logP [3]: 3.3
- inhibition at 0.3 µM (hERG (KCNH2) [2]): 68%

Structure (SMILES): COc1cc(N2Cc3nn(-c4ccc(Cl)cc4)nc3C2=O)ccc1OCC(O)C1CC1 (racemic)
- Ki [1]: 112 nM

Structure (SMILES): CN(C)[C@H]1CCN(c2ccc(N3Cc4cn(-c5ccc(Cl)cc5)nc4C3=O)cn2)C1
- Ki [1]: 0.7 nM
- inhibition at 1 µM (hERG (KCNH2) [4]): 50%

Structure (SMILES): COc1cc(-n2cnc3cc(-c4ccc(Cl)cc4)sc3c2=O)ccc1OCCN1CCCC1
- Ki [1]: 1 nM
- logP [3]: 3.5
- Activity (Rattus norvegicus [5]): 8.7%
- fraction unbound [6]: 0.012
- concentration at 20 h [7]: 378 nM
- concentration at 20 h [8]: 654 nM

Structure (SMILES): COc1cc(N2Cc3cn(-c4ccc(Cl)cc4)nc3C2=O)ccc1OCC(C)(C)OC(=O)CN
- Activity (Rattus norvegicus [9]): 1.8%
- Fu (Plasma [10]): 1%
- concentration (Plasma [11]): 2560 nM
- concentration (Brain [12]): 1060 nM
- Ki [13]: 3.8 nM

Structure (SMILES): CN[C@H]1CCN(c2ccc(N3Cc4cn(-c5ccc(Cl)cc5)nc4C3=O)cn2)C1
- Ki [1]: 0.96 nM
- inhibition at 1 µM (hERG (KCNH2) [4]): 66%
- Ki [14]: 0.8 nM
- Activity (Rattus norvegicus [15]): 2.2%
- Activity (Rattus norvegicus [16]): 3.8%
- Activity (Rattus norvegicus [17]): 7.5%
- fraction unbound [18]: 0.042
- fraction unbound [19]: 0.042
- fraction unbound [20]: 0.042
- concentration at 20 h [21]: 131 nM
- concentration at 20 h [22]: 574 nM
- concentration at 20 h [23]: 1580 nM
- Drug uptake (Brain [24]): BLD
- concentration at 20 h [25]: 739 nM
- concentration at 20 h [26]: 2770 nM
- Ratio [27]: 39
- Ratio [28]: 145
- IC50 [29]: 241 nM

Structure (SMILES): COc1cc(-n2cnc3cc(-c4ccc(Cl)cc4)sc3c2=O)ccc1OCC(C)(C)O
- Ki [1]: 7.9 nM
- IC50 [29]: 13 nM

Structure (SMILES): COc1cc(N2Cc3cn(-c4ccc(Cl)cc4)nc3C2=O)ccc1OC[C@H](O)C1CC1
- Ki [1]: 9 nM

Structure (SMILES): COc1cc(N2Cc3cn(-c4ccc(Cl)cc4)nc3C2=O)ccc1OCC(C)O (configuration not stated)
- Ki [1]: 13 nM

Structure (SMILES): COc1cc(-n2cnc3cc(-c4ccc(Cl)cc4)sc3c2=O)ccc1OCC(C)(C)OC(=O)CN
- Ki [30]: 7.2 nM
- Activity (Rattus norvegicus [31]): 8.8%
- Fu (Plasma [32]): 0.7%
- concentration (Plasma [33]): 546 nM
- Drug uptake (Brain [34]): 1610 nM
- Ratio [35]: 1.6
- BPR [36]: 1.7

Structure (SMILES): COc1cc(N2Cc3nn(-c4ccc(Cl)cc4)cc3C2=O)ccc1OC[C@H](O)C1CC1
- Ki [1]: 41 nM

Structure (SMILES): CC(=O)N(C)C1CCN(c2ccc(N3Cc4cn(-c5ccc(Cl)cc5)nc4C3=O)cn2)C1 (configuration not stated)
- Ki [1]: 6.5 nM
- inhibition at 1 µM (hERG (KCNH2) [4]): 23%

Structure (SMILES): COc1cc(N2Cc3cn(-c4ccc(Cl)cc4)nc3C2=O)ccc1OCC(C)(C)O
- Ki [1]: 8 nM
- IC50 [29]: 1170 nM

Structure (SMILES): COc1cc(N2Cc3cn(-c4ccc(Cl)cn4)nc3C2=O)ccc1OCC(C)(C)O
- Ki [1]: 44 nM

Structure (SMILES): N[C@H]1CCN(c2ccc(N3Cc4cn(-c5ccc(Cl)cc5)nc4C3=O)cn2)C1
- Ki [1]: 2.1 nM
- inhibition at 1 µM (hERG (KCNH2) [4]): 58%

Structure (SMILES): CC(C)(C)NC1CCN(c2ccc(N3Cc4cn(-c5ccc(Cl)cc5)nc4C3=O)cn2)C1 (configuration not stated)
- Ki [1]: 2.7 nM
- inhibition at 1 µM (hERG (KCNH2) [4]): 71%

Structure (SMILES): COc1cc(N2Cc3cn(-c4ccc(Cl)cc4)nc3C2=O)ccc1N1C[C@H](O)[C@@H](O)C1
- Ki [1]: 11 nM
- inhibition at 1 µM (hERG (KCNH2) [4]): < 5%
- IC50 [37]: > 30000 nM

Structure (SMILES): COc1cc(N2Cc3nn(-c4ccc(Cl)cc4)nc3C2=O)ccc1OCC(C)(C)O
- Ki [1]: 34 nM

Structure (SMILES): CN[C@@H]1CCN(c2ccc(N3Cc4cn(-c5ccc(Cl)cc5)nc4C3=O)cn2)C1
- Ki [1]: 1.3 nM
- inhibition at 1 µM (hERG (KCNH2) [4]): 50%

Structure (SMILES): COc1cc(N2Cc3cn(-c4ccc(Cl)cc4)nc3C2=O)ccc1N1CC[C@@H](O)C1
- Ki [1]: 7.1 nM
- IC50 [37]: > 80000 nM

Structure (SMILES): COc1cc(N2Cc3cn(-c4ccc(Cl)cc4)nc3C2=O)ccc1OCCN1CCCC1
- Ki [1]: 0.42 nM
- logP [3]: 2.8
- inhibition at 0.3 µM (hERG (KCNH2) [2]): 58%
- IC50 [29]: 3060 nM
